In US10206908B2, “3-(1H-pyrrolo[3,2-C]pyridin-2-YL)-1H-pyrazolo[3,4-C]pyridines and therapeutic uses thereof” (Samumed, LLC, priority 2015, dated 2019) one finds inhibition, EC50 and Emax data, which are given here for 14 compounds.

Common to all, as to assay type: cell-based
The test system of one assay is IL-6 (THP-1 cells). Briefly: IL-6 inhibition in LPS-stimulated THP-1 monocytes (HTRF). The conditions noted are these: Homo sapiens; for inhibition at 10 µM: THP-1, read-out: percent inhibition at 10 μM; for EC50: IL-6, THP-1 cells, LPS 500 ng/mL, 22 hours. The method, boiled down: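 THP-1 cells kept 24 h in 1% FBS medium, exposed to compound 2 h at 37 °C, then stimulated with 500 ng/mL LPS for 22 h. Secreted IL-6 quantified by HTRF (665/620 nm ratio), duplicates. Values normalized to DMSO; EC50 by four-parameter variable-slope regression.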

The next assay relates to SW480 colon cancer cells. Nature of the assay: Cell viability assay (CellTiter-Blue) in SW480 colon cancer cells. Conditions: Homo sapiens; for EC50: 96 h, SW480 cell viability, four days; for inhibition at 10 µM: SW480, read-out: percent inhibition at 10 μM. In short, it runs like this: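 Fluorescence from resazurin reduced to resorufin by metabolically active cells was the read-out, taken after ~3 h with CellTiter-Blue.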

Assay [1] concerns primary human mesenchymal stem cells (hMSCs). Nature of the assay: Induction of chondrogenesis in hMSCs (chondrogenic nodules, Rhodamine B/Nile Red). The conditions noted are these: 6 days; for Emax: relative to TGF-β3 (10 ng/mL) positive control, read-out: Max. Activity as % TGF-β3 activity; for EC50: concentration required to induce 50% levels of chondrogenesis vs TGF-β3, read-out: Conc (nM) of 50% TGF-β3 activity. An excerpt:
Representative compounds were screened using primary human mesenchymal stem cells (hMSCs) to determine their ability to induce chondrogenesis (process by which cartilage is developed).
Human Mesenchymal Stem Cell Culture: Primary human mesenchymal stem cells (hMSCs) were purchased from Lonza (Walkersville, Md.) and expanded in Mesenchymal Stem Cell Growth Media (Lonza). Cells between passage 3 and 6 were used for the experiments.
Number of nodules in each well was normalized to the average of 3 DMSO treated wells on the same plate using Excel (Microsoft Inc.). The normalized averages (fold change over DMSO) of 3 replicate wells for each compound concentration were calculated. Due to solubility limitations of some of the compounds, curve fitting was incomplete leading to inaccurate EC50 determinations.
Using TGF-β3 as a positive control, the concentration of representative compounds required to induce 50% levels of chondrogenesis is reported. In addition, the maximum activity of each compound and the respective dose that each compound reached maximum chondrogenesis activity is reported.

Assay [2] deals with Wnt activity (Sp5-Luc reporter, SW480 colon carcinoma cells). Nature of the assay: Screening assay for Wnt activity: Sp5-Luc reporter gene assay in SW480 colon carcinoma cells. The conditions noted are these: Homo sapiens; for inhibition at 10 µM: SW480, read-out: percent inhibition at 10 μM; for EC50: Sp5-Luc reporter, SW480 cells, overnight incubation. The method, boiled down:
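SW480 colon carcinoma cells stably carrying Sp5 promoter (eight TCF/LEF sites)-driven firefly luciferase, plated at 4,000 cells/well in 1% FBS medium and incubated overnight at 37° C. Luminescence normalised to DMSO-only cells; EC50 from four-parameter variable-slope nonlinear regression.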

In assay [3] the test system is primary human fibroblasts derived from IPF patients (LL29 cells) treated with TGF-β1. Briefly: Inhibition of the fibrotic process: αSMA staining in TGF-β1 treated LL29 fibroblasts. Conditions: Fibroblast; for EC50: 96 h, % αSMA positive LL29 cells, TGF-β1 20 ng/mL, 4 days. In short, it runs like this: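 IPF-patient-derived LL29 lung fibroblasts in F12 with 1% FBS, stimulated with TGF-β1 alongside compound; TGF-β1 plus DMSO wells served as controls. After 4 days, nuclei stained with 1 μM SYTOX green for 30 min at room temperature, alongside αSMA staining.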

Turning to `CC(C)C(=O)Nc1cncc(-c2cc3c(-c4cc5c(-c6ccncc6)nccc5[nH]4)n[nH]c3cn2)c1` [Compound 121, N-(5-(3-(4-(Pyridin-4-yl)-1H-pyrrolo[3,2-c]pyridin-2-yl)-1H-pyrazolo[3,4-c]pyridin-5-yl)pyridin-3-yl)isobutyramide], the figures for the inhibition at 10 µM (in the assay on IL-6 (THP-1 cells); with SW480 colon cancer cells; in assay [2]) were 0%, 19.7% and 6.2%, respectively. The EC50 in the assay on IL-6 (THP-1 cells) is above 10000 nM; in the assay with SW480 colon cancer cells, above 10000 nM; in assay [2], above 10000 nM; in assay [3] it was 9820 nM. For the same compound, in assay [1], the Emax came to 32%.

In the case of `c1ccc(CNCc2cncc(-c3cc4c(-c5cc6c(-c7ccncc7)nccc6[nH]5)n[nH]c4cn3)c2)cc1` [Compound 136, N-Benzyl-1-(5-(3-(4-(pyridin-4-yl)-1H-pyrrolo[3,2-c]pyridin-2-yl)-1H-pyrazolo[3,4-c]pyridin-5-yl)pyridin-3-yl)methanamine], the inhibition at 10 µM is 0% with IL-6 (THP-1 cells), 23% in the assay with SW480 colon cancer cells and 50.4% in assay [2]. In addition, the EC50 with IL-6 (THP-1 cells) is above 10000 nM; with SW480 colon cancer cells, above 10000 nM; in assay [1] it was 900 nM; in assay [2], above 10000 nM; in assay [3], 560 nM. The Emax in assay [1] was 67%.

With `CCNCc1cncc(-c2cc3c(-c4cc5c(N6CCCCC6)nccc5[nH]4)n[nH]c3cn2)c1` [Compound 174, N-((5-(3-(4-(Piperidin-1-yl)-1H-pyrrolo[3,2-c]pyridin-2-yl)-1H-pyrazolo[3,4-c]pyridin-5-yl)pyridin-3-yl)methyl)ethanamine], the EC50 in the assay on IL-6 (THP-1 cells) turned out to be 1020 nM; in the assay on SW480 colon cancer cells, 2370 nM; in assay [1] it was 10 nM; in assay [2], 2770 nM; in assay [3], 1200 nM. Moreover, the Emax in assay [1] was 183%.

Turning to `O=C(Nc1cncc(-c2cc3c(-c4cc5c(N6CCCCC6)nccc5[nH]4)n[nH]c3cn2)c1)C1CCC1` [Compound 189, N-(5-(3-(4-(Piperidin-1-yl)-1H-pyrrolo[3,2-c]pyridin-2-yl)-1H-pyrazolo[3,4-c]pyridin-5-yl)pyridin-3-yl)cyclobutanecarboxamide], the EC50 in the assay on IL-6 (THP-1 cells) was determined as 3430 nM; with SW480 colon cancer cells it was 4890 nM; in assay [2], 4070 nM; in assay [3], 1220 nM. Also, the Emax in assay [1] turned out to be 42%.

For `CCC(=O)Nc1cncc(-c2cc3c(-c4cc5c(N6CCN(C)CC6)nccc5[nH]4)n[nH]c3cn2)c1` [Compound 225, N-(5-(3-(4-(4-Methylpiperazin-1-yl)-1H-pyrrolo[3,2-c]pyridin-2-yl)-1H-pyrazolo[3,4-c]pyridin-5-yl)pyridin-3-yl)propionamide], the EC50 was 743 nM in the assay with IL-6 (THP-1 cells); above 10000 nM in the assay on SW480 colon cancer cells; 30 nM in assay [1]; above 10000 nM in assay [2]; 5300 nM in assay [3]. The values for the inhibition at 10 µM (with SW480 colon cancer cells; in assay [2]) were 7.9% and 52.4%, respectively. The Emax in assay [1] amounted to 70%.

Consider `CN1CCN(c2nccc3[nH]c(-c4n[nH]c5cnc(-c6cncc(N)c6)cc45)cc23)CC1` [Compound 227, 5-(3-(4-(4-Methylpiperazin-1-yl)-1H-pyrrolo[3,2-c]pyridin-2-yl)-1H-pyrazolo[3,4-c]pyridin-5-yl)pyridin-3-amine], for which the inhibition at 10 µM with IL-6 (THP-1 cells) turned out to be 39.5%; with SW480 colon cancer cells, 20.5%; in assay [2], 46.2%. Moreover, the EC50 was above 10000 nM in the assay with IL-6 (THP-1 cells), above 10000 nM with SW480 colon cancer cells, above 10000 nM in assay [2] and 5410 nM in assay [3]. Besides, the Emax in assay [1] is 50%.

As for `CN1CCN(c2nccc3[nH]c(-c4n[nH]c5cnc(-c6cncc(NC(=O)C(C)(C)C)c6)cc45)cc23)CC1` [Compound 232, N-(5-(3-(4-(4-Methylpiperazin-1-yl)-1H-pyrrolo[3,2-c]pyridin-2-yl)-1H-pyrazolo[3,4-c]pyridin-5-yl)pyridin-3-yl)pivalamide], the EC50 in the assay on IL-6 (THP-1 cells) is 388 nM; in the assay with SW480 colon cancer cells it was above 10000 nM; in assay [1] it was 10 nM; in assay [2], 1880 nM; in assay [3], 756 nM. The inhibition at 10 µM with SW480 colon cancer cells came out at 62.2%. Besides, the Emax in assay [1] was found to be 88%.

In the case of `CN1CCN(c2nccc3[nH]c(-c4n[nH]c5cnc(-c6cncc(NC(=O)c7ccccc7)c6)cc45)cc23)CC1` [Compound 235, N-(5-(3-(4-(4-Methylpiperazin-1-yl)-1H-pyrrolo[3,2-c]pyridin-2-yl)-1H-pyrazolo[3,4-c]pyridin-5-yl)pyridin-3-yl)benzamide], the EC50 was 1340 nM with IL-6 (THP-1 cells); above 10000 nM in the assay with SW480 colon cancer cells; 10 nM in assay [1]; 2800 nM in assay [2]; 2460 nM in assay [3]. Also, the inhibition at 10 µM in the assay with SW480 colon cancer cells was determined as 21.5%. Besides, in assay [1], the Emax turned out to be 67%.

Regarding `CN(C)Cc1cncc(-c2cc3c(-c4cc5c(N6CCN(C)CC6)nccc5[nH]4)n[nH]c3cn2)c1` [Compound 237, N,N-Dimethyl-1-(5-(3-(4-(4-methylpiperazin-1-yl)-1H-pyrrolo[3,2-c]pyridin-2-yl)-1H-pyrazolo[3,4-c]pyridin-5-yl)pyridin-3-yl)methanamine], the EC50 in the assay with IL-6 (THP-1 cells) is 4680 nM; in the assay on SW480 colon cancer cells, above 10000 nM; in assay [2], 3890 nM; in assay [3], above 10000 nM. Further, the inhibition at 10 µM with SW480 colon cancer cells came out at 43.7%; in assay [3] (read-out: percent inhibition at 10 μM), 37%. In addition, the Emax in assay [1] was 14%.

In the case of `CN1CCN(c2nccc3[nH]c(-c4n[nH]c5cnc(-c6cncc(NC(=O)C7CCCCC7)c6)cc45)cc23)CC1` [Compound 247, N-(5-(3-(4-(4-Methylpiperazin-1-yl)-1H-pyrrolo[3,2-c]pyridin-2-yl)-1H-pyrazolo[3,4-c]pyridin-5-yl)pyridin-3-yl)cyclohexanecarboxamide], the EC50 was 4600 nM in the assay on IL-6 (THP-1 cells); above 10000 nM in the assay with SW480 colon cancer cells; 10 nM in assay [1]; 3420 nM in assay [2]; 2990 nM in assay [3]. Also, the inhibition at 10 µM in the assay with SW480 colon cancer cells came out at 40.3%. Besides, the Emax in assay [1] was determined as 61%.

Consider `CN1CCN(c2nccc3[nH]c(-c4n[nH]c5cnc(-c6cncc(CN7CCC(F)(F)C7)c6)cc45)cc23)CC1` [Compound 250, 5-(5-((3,3-Difluoropyrrolidin-1-yl)methyl)pyridin-3-yl)-3-(4-(4-methylpiperazin-1-yl)-1H-pyrrolo[3,2-c]pyridin-2-yl)-1H-pyrazolo[3,4-c]pyridine], for which the EC50 is 323 nM in the assay with IL-6 (THP-1 cells); 2370 nM in the assay with SW480 colon cancer cells; 10 nM in assay [1]; 1100 nM in assay [2]; 641 nM in assay [3]. Also, the Emax in assay [1] came to 76%.

Take `c1cncc(-c2cc3c(-c4cc5cnccc5[nH]4)n[nH]c3cn2)c1` [Compound 256, 5-(Pyridin-3-yl)-3-(1H-pyrrolo[3,2-c]pyridin-2-yl)-1H-pyrazolo[3,4-c]pyridine]: the EC50 in the assay on IL-6 (THP-1 cells) was 362 nM; with SW480 colon cancer cells it was 628 nM; in assay [1], 30 nM; in assay [2] it was 133 nM; in assay [3], 25 nM. For the same compound, in assay [1], the Emax was 62%.

Consider `Cc1ccncc1-c1cc2c(-c3cc4cnccc4[nH]3)n[nH]c2cn1` [Compound 257, 5-(4-Methylpyridin-3-yl)-3-(1H-pyrrolo[3,2-c]pyridin-2-yl)-1H-pyrazolo[3,4-c]pyridine], for which the EC50 is 944 nM in the assay on IL-6 (THP-1 cells); 798 nM with SW480 colon cancer cells; 10 nM in assay [1]; 389 nM in assay [2]; 376 nM in assay [3]. The Emax in assay [1] was found to be 61%.

For the compound `CN(C)c1cncc(-c2cc3c(-c4cc5cnccc5[nH]4)n[nH]c3cn2)c1` [Compound 259, 5-(3-(1H-Pyrrolo[3,2-c]pyridin-2-yl)-1H-pyrazolo[3,4-c]pyridin-5-yl)-N,N-dimethylpyridin-3-amine], the EC50 in the assay with IL-6 (THP-1 cells) worked out at 2220 nM; in the assay with SW480 colon cancer cells, 1600 nM; in assay [1], 300 nM; in assay [2], 3060 nM; in assay [3], 401 nM. In addition, the Emax in assay [1] came out at 101%.
